For experiment [1], the system named is Klebsiella pneumoniae. Description: Antimicrobial activity against carbapenem-resistant KPC-2 producing Klebsiella pneumoniae 588 ST 340 expressing beta-lactamase TEM-1 and SHV-11 by agar dilution method in presence of beta-lactamase inhibitor Tazobactam. The class given is functional.
The subject of experiment [2] is Klebsiella pneumoniae. Description: Antimicrobial activity against carbapenem-resistant KPC-2 producing Klebsiella pneumoniae 525 ST 376 expressing beta-lactamase SHV-1 by agar dilution method in presence of beta-lactamase inhibitor Tazobactam. The class given is functional.
The test system of experiment [3] is Klebsiella pneumoniae. Description: Antimicrobial activity against carbapenem-resistant KPC-2 producing Klebsiella pneumoniae 469 transformant by agar dilution method in presence of beta-lactamase inhibitor Tazobactam. The class given is functional.
In experiment [4] the test system is Klebsiella pneumoniae. Description: Antimicrobial activity against carbapenem-resistant KPC-2 producing Klebsiella pneumoniae 523 ST 340 expressing beta-lactamase TEM-1, SHV-11 and OXA-2 by agar dilution method in presence of beta-lactamase inhibitor Tazobactam. The format is functional.
Experiment [5] concerns Klebsiella pneumoniae. Description: Antimicrobial activity against KPC-3 producing Klebsiella pneumoniae 549 ST 327 expressing beta-lactamase TEM-1 and CTX-M-2 by agar dilution method in presence of beta-lactamase inhibitor Tazobactam. The format is functional.
The test system of experiment [6] is Klebsiella pneumoniae. Description: Antimicrobial activity against carbapenem-resistant KPC-2 producing Klebsiella pneumoniae 526 ST 376 expressing beta-lactamase SHV-1 by agar dilution method in presence of beta-lactamase inhibitor Tazobactam. The class given is functional.
For experiment [7], the system named is Klebsiella pneumoniae. Description: Antimicrobial activity against carbapenem-resistant KPC-2 producing Klebsiella pneumoniae 469 ST 277 expressing beta-lactamase SHV-27, CTX-M-15 and OXA-4 by agar dilution method in presence of beta-lactamase inhibitor Tazobactam. The format is functional.
Experiment [8] concerns Klebsiella pneumoniae. Description: Antimicrobial activity against carbapenem-resistant KPC-2 producing Klebsiella pneumoniae 531 transformant by agar dilution method in presence of beta-lactamase inhibitor Tazobactam. The class given is functional.
Experiment [9] relates to Klebsiella pneumoniae. Kind of experiment: Antimicrobial activity against carbapenem-resistant KPC-2 producing Klebsiella pneumoniae 365 ST 376 expressing beta-lactamase SHV-1, CTX-M-15 and OXA-4 by agar dilution method in presence of beta-lactamase inhibitor Tazobactam.
Experiment [10] deals with Klebsiella pneumoniae. Description: Antimicrobial activity against carbapenem-resistant KPC-2 producing Klebsiella pneumoniae 531 ST 376 expressing beta-lactamase SHV-1 by agar dilution method in presence of beta-lactamase inhibitor Tazobactam. The class given is functional.
Experiment [11] relates to Klebsiella pneumoniae. Kind of experiment: Antimicrobial activity against carbapenem-resistant KPC-2 producing Klebsiella pneumoniae 526 transformant by agar dilution method in presence of beta-lactamase inhibitor Tazobactam. The class given is functional.
A further experiment has as its system Escherichia coli. Description: Antimicrobial activity against Escherichia coli Genehogs by agar dilution method in presence of beta-lactamase inhibitor Tazobactam. The class given is functional.
The subject of experiment [12] is Klebsiella pneumoniae. Description: Antimicrobial activity against carbapenem-resistant KPC-2 producing Klebsiella pneumoniae 588 transformant by agar dilution method in presence of beta-lactamase inhibitor Tazobactam. The class given is functional.
Experiment [13] relates to Klebsiella pneumoniae. Kind of experiment: Antimicrobial activity against carbapenem-resistant KPC-2 producing Klebsiella pneumoniae 475 ST 277 expressing beta-lactamase SHV-27, CTX-M-15 and OXA-4 by agar dilution method in presence of beta-lactamase inhibitor Tazobactam. The class given is functional.
Experiment [14] deals with Klebsiella pneumoniae. Description: Antimicrobial activity against carbapenem-resistant KPC-2 producing Klebsiella pneumoniae 523transformant by agar dilution method in presence of beta-lactamase inhibitor Tazobactam. The format is functional.
Experiment [15] deals with Klebsiella pneumoniae. Description: Antimicrobial activity against KPC-3 producing Klebsiella pneumoniae 557 transformant by agar dilution method in presence of beta-lactamase inhibitor Tazobactam. The class given is functional.
In experiment [16] the test system is Klebsiella pneumoniae. Description: Antimicrobial activity against carbapenem-resistant KPC-2 producing Klebsiella pneumoniae 525 transformant by agar dilution method in presence of beta-lactamase inhibitor Tazobactam. The class given is functional.
Experiment [17] relates to Klebsiella pneumoniae. Description: Antimicrobial activity against KPC-3 producing Klebsiella pneumoniae 549 transformant by agar dilution method in presence of beta-lactamase inhibitor Tazobactam. The class given is functional.
Experiment [18] deals with Klebsiella pneumoniae. Kind of experiment: Antimicrobial activity against KPC-3 producing Klebsiella pneumoniae 557 ST 258 expressing beta-lactamase TEM-1 by agar dilution method in presence of beta-lactamase inhibitor Tazobactam.
Experiment [19] deals with Klebsiella pneumoniae. Description: Antimicrobial activity against carbapenem-resistant KPC-2 producing Klebsiella pneumoniae 475transformant by agar dilution method in presence of beta-lactamase inhibitor Tazobactam. The class given is functional.
Experiment [20] has as its system Klebsiella pneumoniae. Kind of experiment: Antimicrobial activity against carbapenem-resistant KPC-2 producing Klebsiella pneumoniae 365 transformant by agar dilution method in presence of beta-lactamase inhibitor Tazobactam. The class given is functional.

A value given as a limit tells only on which side of the number the result lay.

In the case of `CCN1CCN(C(=O)N[C@@H](C(=O)N[C@@H]2C(=O)N3[C@@H]2SC(C)(C)[C@@H]3C(=O)O)c2ccccc2)C(=O)C1=O` [PIPERACILLIN], the MIC with Klebsiella pneumoniae [1] was > 128 µg/mL; in the experiment on Klebsiella pneumoniae [2], > 128 µg/mL; with Klebsiella pneumoniae [3], > 128 µg/mL; in the experiment with Klebsiella pneumoniae [4], 128 µg/mL; in the experiment on Klebsiella pneumoniae [5] it was > 320 µg/mL; in the experiment with Klebsiella pneumoniae [6] it was > 128 µg/mL. For the same compound, the MIC is > 128 µg/mL in the experiment on Klebsiella pneumoniae [7]; 64 µg/mL in the experiment with Klebsiella pneumoniae [8]; > 128 µg/mL in the experiment on Klebsiella pneumoniae [9]; > 128 µg/mL in the experiment on Klebsiella pneumoniae [10]; > 128 µg/mL in the experiment on Klebsiella pneumoniae [11]; < 4 µg/mL in the experiment with Escherichia coli. The MIC in the experiment with Klebsiella pneumoniae [12] was > 128 µg/mL; in the experiment on Klebsiella pneumoniae [13], > 128 µg/mL; in the experiment with Klebsiella pneumoniae [14] it was > 128 µg/mL; with Klebsiella pneumoniae [15], 64 µg/mL; in the experiment on Klebsiella pneumoniae [16], 64 µg/mL; in the experiment on Klebsiella pneumoniae [17] it was 64 µg/mL. Also, the MIC with Klebsiella pneumoniae [18] was > 320 µg/mL; in the experiment on Klebsiella pneumoniae [19], > 128 µg/mL; in the experiment with Klebsiella pneumoniae [20], > 128 µg/mL.

The values above are taken from ChEMBL document CHEMBL1275589, “Molecular epidemiology, sequence types, and plasmid analyses of KPC-producing Klebsiella pneumoniae strains in Israel” (2010).
